The subject of the experiment is P388 leukemia ip, CD2F1 mice, survival T/C. Put plainly: NCI In Vivo Anticancer Drug Screen. Data for tumor model P388 Leukemia (intraperitoneal) in CD2F1 (CDF1) mice. Conditions: endpoint: median survival time, higher = longer survival. An outline of the steps: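 Mice carrying the transplanted tumor received test compound or vehicle. Survival was recorded in each group, and the value is the treated-group measurement divided by that of the vehicle-treated control group.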

Where [1] appears, read: dose: 7.5 mg/kg/injection, schedule: Q01DX005 (ip), vehicle: saline with Tween-80.
Setting [2] is: dose: 15.0 mg/kg/injection, schedule: Q01DX005 (ip), vehicle: saline with Tween-80.
Setting [3] is: dose: 50.0 mg/kg/injection, schedule: Q01DX009 (ip), vehicle: saline.
Where [4] appears, read: dose: 25.0 mg/kg/injection, schedule: Q01DX009 (ip), vehicle: saline.
Setting [5] is: dose: 100.0 mg/kg/injection, schedule: Q01DX009 (ip), vehicle: saline with Tween-80.
The mark [6] stands for this setting: dose: 50.0 mg/kg/injection, schedule: Q01DX009 (ip), vehicle: saline with Tween-80.
The mark [7] stands for this setting: dose: 200.0 mg/kg/injection, schedule: Q01DX009 (ip), vehicle: saline with Tween-80.
Where [8] appears, read: dose: 50.0 mg/kg/injection, schedule: Q01DX005 (ip), vehicle: saline with Tween-80.
Setting [9] is: dose: 100.0 mg/kg/injection, schedule: Q01DX005 (ip), vehicle: saline with Tween-80.
Where [10] appears, read: dose: 200.0 mg/kg/injection, schedule: Q01DX005 (ip), vehicle: saline with Tween-80.

Toxic doses and inconclusive results are not listed. Bridge positions count the residues as written; N and C are the ends. Peptide text beside a SMILES is read from it. I, II: the chains in the order shown. * marks the point of attachment. Cbz = O=C(OCc1ccccc1)*

For the compound `CCN(CC)CCCC(C)Nc1cc(/C=C/c2ccc(Cl)cc2)nc2ccc(N(C)C)cc12` (stereo not drawn), the T/C reads like this: under setting [1], 100 % of control; under setting [2], 104 % of control.

For the compound `CC1(C)CN(C(C)(C)C)CC(C)(C)C(O)C1=O` (stereo not drawn), the T/C is, setting by setting: (dose: 100.0 mg/kg/injection, schedule: Q01DX001 (ip), vehicle: saline with Tween-80) 100 % of control; (dose: 200.0 mg/kg/injection, schedule: Q01DX001 (ip), vehicle: saline with Tween-80) 118 % of control; (dose: 400.0 mg/kg/injection, schedule: Q01DX001 (ip), vehicle: saline with Tween-80) 104 % of control.

As to `O=c1[nH]c(=S)ccn1C1OC(CO)C(O)C1O` (stereo not drawn), the T/C under setting [3] is 97 % of control; the T/C (dose: 100.0 mg/kg/injection, schedule: Q01DX009 (ip), vehicle: saline) is 101 % of control; the T/C (dose: 200.0 mg/kg/injection, schedule: Q01DX009 (ip), vehicle: saline) is 93 % of control.

With `CC(/C=N/N=C(N)N)=N/N=C(N)N`, the T/C under setting [4] was 120 % of control; the T/C (dose: 25.0 mg/kg/injection, schedule: Q04DX003 (ip), vehicle: saline) was 100 % of control; the T/C under setting [3] was 150 % of control; the T/C (dose: 50.0 mg/kg/injection, schedule: Q04DX003 (ip), vehicle: saline) was 100 % of control; the T/C (dose: 75.0 mg/kg/injection, schedule: Q01DX009 (ip), vehicle: saline) was 170 % of control; the T/C under setting [5] was 86 % of control.

Turning to `Cc1ccc(S(=O)(=O)NCc2cccc([N+](=O)[O-])c2)cc1`, the T/C is, setting by setting: (dose: 60.0 mg/kg/injection, schedule: Q01DX005 (ip), vehicle: Klucel (hydroxypropylcellulose) (HPC)) 94 % of control; (dose: 120.0 mg/kg/injection, schedule: Q01DX005 (ip), vehicle: Klucel (hydroxypropylcellulose) (HPC)) 104 % of control; (dose: 240.0 mg/kg/injection, schedule: Q01DX005 (ip), vehicle: Klucel (hydroxypropylcellulose) (HPC)) 98 % of control.

As to `Cc1nc2cc(C(=O)NC=O)c3n[nH]nc3c2n1C`, the T/C is, setting by setting: (dose: 4.0 mg/kg/injection, schedule: Q01DX005 (ip), vehicle: DMSO) 98 % of control; (dose: 8.0 mg/kg/injection, schedule: Q01DX005 (ip), vehicle: DMSO) 103 % of control; (dose: 16.0 mg/kg/injection, schedule: Q01DX005 (ip), vehicle: DMSO) 94 % of control; (dose: 32.0 mg/kg/injection, schedule: Q01DX005 (ip), vehicle: DMSO) 93 % of control.

Regarding `CN(C=O)COC(=O)c1ccccc1`, the T/C (dose: 31.25 mg/kg/injection, schedule: Q01DX005 (ip), vehicle: distilled water + Tween-80) is 104 % of control; the T/C (dose: 62.5 mg/kg/injection, schedule: Q01DX005 (ip), vehicle: distilled water + Tween-80) is 96 % of control; the T/C (dose: 125.0 mg/kg/injection, schedule: Q01DX005 (ip), vehicle: distilled water + Tween-80) was 93 % of control; the T/C (dose: 250.0 mg/kg/injection, schedule: Q01DX005 (ip), vehicle: distilled water + Tween-80) was 104 % of control.

In the case of `c1ccc2[nH]ncc2c1`, the T/C runs as follows: under setting [6], 96 % of control; under setting [5], 102 % of control; under setting [7], 100 % of control.

Turning to `C[n+]1ccccc1C#N`, the T/C is 109 % of control (dose: 12.5 mg/kg/injection, schedule: Q01DX009 (ip), vehicle: saline); 104 % of control under setting [4]; 104 % of control under setting [3].

On to `NC(CSSCC(N)C(=O)NC(Cc1ccc(O)cc1)C(=O)O)C(=O)NC(Cc1ccc(O)cc1)C(=O)O` (stereo not drawn) (I: H-Cys-Tyr-OH / II: H-Cys-Tyr-OH; disulfide I:1-II:1; configuration not given here), for which the T/C is, setting by setting: (dose: 50.0 mg/kg/injection, schedule: Q01DX005 (ip), vehicle: saline) 110 % of control; (dose: 100.0 mg/kg/injection, schedule: Q01DX005 (ip), vehicle: saline) 111 % of control; (dose: 200.0 mg/kg/injection, schedule: Q01DX005 (ip), vehicle: saline) 103 % of control.

As to `O=c1n(-c2ccccc2)c(=O)n2n1C1C3C4C3C2C2(F)C4C12` (stereo not drawn), the T/C (dose: 3.0 mg/kg/injection, schedule: Q04DX002 (ip), vehicle: Klucel (hydroxypropylcellulose) (HPC)) was 95 % of control; the T/C (dose: 6.0 mg/kg/injection, schedule: Q04DX002 (ip), vehicle: Klucel (hydroxypropylcellulose) (HPC)) was 101 % of control; the T/C (dose: 12.5 mg/kg/injection, schedule: Q04DX002 (ip), vehicle: Klucel (hydroxypropylcellulose) (HPC)) is 108 % of control.

For the compound `C[N+]1(C)CCC2=CC(=O)CC(c3ccccc3)C2C1` (stereo not drawn), the T/C is 100 % of control under setting [8], 98 % of control under setting [9] and 103 % of control under setting [10].

In the case of `CC(=O)O[C@H]1CC[C@@]2(C)C(CC[C@]3(C)C2CC=C2[C@@H]4CC(C)(C)CC[C@]4(C(=O)NCCN(C)C)CCC23C)C1(C)C` (stereo partly drawn), the T/C runs as follows: under setting [1], 99 % of control; under setting [2], 100 % of control; (dose: 30.0 mg/kg/injection, schedule: Q01DX005 (ip), vehicle: saline with Tween-80) 99 % of control; (dose: 60.0 mg/kg/injection, schedule: Q01DX005 (ip), vehicle: saline with Tween-80) 103 % of control.

For the compound `Cc1sc(C)c(CCl)c1CCl`, the T/C (dose: 12.5 mg/kg/injection, schedule: Q01DX009 (ip), vehicle: saline with Tween-80) is 113 % of control; the T/C (dose: 25.0 mg/kg/injection, schedule: Q01DX009 (ip), vehicle: saline with Tween-80) was 118 % of control; the T/C (dose: 37.5 mg/kg/injection, schedule: Q01DX009 (ip), vehicle: saline with Tween-80) is 122 % of control; the T/C under setting [6] is 118 % of control.

Take `CSCCC(NC(=O)C1CCCN1C(=O)OCc1ccccc1)C(=O)O` (stereo not drawn) (Cbz-Pro-Met-OH; configuration not given here): the T/C reads like this: under setting [8], 104 % of control; under setting [9], 106 % of control; under setting [10], 105 % of control.

Regarding `CC(=O)[O][Sn]([CH3])([CH3])[CH3]`, the T/C runs as follows: (dose: 0.37 mg/kg/injection, schedule: Q01DX009 (ip), vehicle: saline) 112 % of control; (dose: 0.75 mg/kg/injection, schedule: Q01DX009 (ip), vehicle: saline) 112 % of control.

On to `COC(CC[S+](C)C)C(=O)O` (stereo not drawn), for which the T/C is 105 % of control (dose: 32.0 mg/kg/injection, schedule: Q01DX005 (ip), vehicle: water); 97 % of control (dose: 64.0 mg/kg/injection, schedule: Q01DX005 (ip), vehicle: water); 102 % of control (dose: 128.0 mg/kg/injection, schedule: Q01DX005 (ip), vehicle: water); 101 % of control (dose: 256.0 mg/kg/injection, schedule: Q01DX005 (ip), vehicle: water).

For `CC([NH-])C[NH-].CC([NH-])C[NH-].CC([NH-])C[NH-].[Co]` (stereo not drawn), the T/C (dose: 12.5 mg/kg/injection, schedule: Q04DX003 (ip), vehicle: water) is 91 % of control; the T/C (dose: 25.0 mg/kg/injection, schedule: Q04DX003 (ip), vehicle: water) is 94 % of control; the T/C (dose: 50.0 mg/kg/injection, schedule: Q04DX003 (ip), vehicle: water) is 94 % of control; the T/C (dose: 100.0 mg/kg/injection, schedule: Q04DX003 (ip), vehicle: water) is 90 % of control.

`O=[N+]([O-])c1ccc(SCN2CCCCC2)cc1`: the T/C by setting is: under setting [6], 104 % of control; under setting [5], 104 % of control; under setting [7], 118 % of control.

In the case of `CC1=CC(=N\S(=O)(=O)c2ccccc2)/c2ccccc2/C1=N/S(=O)(=O)c1ccccc1`, the T/C is, setting by setting: (dose: 12.5 mg/kg/injection, schedule: Q01DX001 (ip), vehicle: saline with Tween-80) 104 % of control; (dose: 25.0 mg/kg/injection, schedule: Q01DX001 (ip), vehicle: saline with Tween-80) 100 % of control; (dose: 50.0 mg/kg/injection, schedule: Q01DX001 (ip), vehicle: saline with Tween-80) 95 % of control.

Take `Cc1ccc2c(C)cc(=O)oc2c1`: the T/C reads like this: (dose: 100.0 mg/kg/injection, schedule: Q04DX003 (ip), vehicle: saline) 102 % of control; (dose: 200.0 mg/kg/injection, schedule: Q04DX003 (ip), vehicle: saline) 105 % of control; (dose: 400.0 mg/kg/injection, schedule: Q04DX003 (ip), vehicle: saline) 108 % of control.

Regarding `CCCCCCCCC1SC1CCCCCCCC(=O)OCC1CS1` (stereo not drawn), the T/C is 100 % of control (dose: 100.0 mg/kg/injection, schedule: Q01DX001 (ip), vehicle: other); 100 % of control (dose: 200.0 mg/kg/injection, schedule: Q01DX001 (ip), vehicle: other); 100 % of control (dose: 400.0 mg/kg/injection, schedule: Q01DX001 (ip), vehicle: other).

Values taken from PubChem BioAssay AID330 (DTP/NCI, 2004).
